“And” between values parts separate entries of the source, which are not always exact repeats. Equal entries are not always repeated. Numbers after ± are expanded uncertainties.
Experiments:
[1] = molar heat capacity at constant pressure; conditions: 101.33 kPa, Large sample (1 g) DSC
[2] = Molar enthalpy of transition or fusion; conditions: DSC
[3] = DSC

For `CCCCn1cc[n+](C)c1C.O=S(=O)([O-])C(F)(F)F` [1-butyl-2,3-dimethylimidazolium trifluoromethanesulfonate], the “molar heat capacity at constant pressure” value ([1]; 283.15 K, Crystal 2) was 381.1 ± 9.4 J/K/mol, the “molar heat capacity at constant pressure” value ([1]; 288.15 K, Crystal 2) was 394.6 ± 9.7 J/K/mol and the “molar heat capacity at constant pressure” value ([1]; 293.15 K, Crystal 2) was 407.1 ± 10 J/K/mol. For the same compound, the “molar heat capacity at constant pressure” value ([1]; 323.15 K, Liquid) was 472.2 ± 12 J/K/mol, the “molar heat capacity at constant pressure” value ([1]; 328.15 K, Liquid) was 474.3 ± 12 J/K/mol and the “molar heat capacity at constant pressure” value ([1]; 333.15 K, Liquid) was 475.2 ± 12 J/K/mol. The “molar heat capacity at constant pressure” value ([1]; 338.15 K, Liquid) was 478.7 ± 12 J/K/mol, the “Molar enthalpy of transition or fusion” value ([2]; Crystal 1) was 3.59 kcal/mol and the “Molar enthalpy of transition or fusion” value ([2]; Crystal 2) was 1.29 kcal/mol and 1.7 kcal/mol. For the same compound, the Triple point temperature ([3]; Crystal 1) was 315.25 ± 0.8 K and 316.15 ± 1 K and the Triple point temperature ([3]; Crystal 2) was 307.45 ± 0.8 K and 306.15 ± 1 K.

With `CCn1cc[n+](C)c1.O=S(=O)([N-]S(=O)(=O)C(F)(F)F)C(F)(F)F` the “molar heat capacity at constant pressure” value ([1]; 283.15 K, Liquid) was 521 ± 13 J/K/mol, the “molar heat capacity at constant pressure” value ([1]; 288.15 K, Liquid) was 522.6 ± 13 J/K/mol and the “molar heat capacity at constant pressure” value ([1]; 293.15 K, Liquid) was 524.2 ± 13 J/K/mol. The “molar heat capacity at constant pressure” value ([1]; 298.15 K, Liquid) was 526.4 ± 13 J/K/mol, the “molar heat capacity at constant pressure” value ([1]; 303.15 K, Liquid) was 528.5 ± 13 J/K/mol and the “molar heat capacity at constant pressure” value ([1]; 308.15 K, Liquid) was 530.7 ± 13 J/K/mol. For the same compound, the “molar heat capacity at constant pressure” value ([1]; 313.15 K, Liquid) was 532.5 ± 13 J/K/mol, the “molar heat capacity at constant pressure” value ([1]; 318.15 K, Liquid) was 534.8 ± 13 J/K/mol and the “molar heat capacity at constant pressure” value ([1]; 323.15 K, Liquid) was 536.3 ± 13 J/K/mol. For the same compound, the “molar heat capacity at constant pressure” value ([1]; 328.15 K, Liquid) was 538.9 ± 13 J/K/mol, the “molar heat capacity at constant pressure” value ([1]; 333.15 K, Liquid) was 540.2 ± 13 J/K/mol and the “molar heat capacity at constant pressure” value ([1]; 338.15 K, Liquid) was 541.7 ± 13 J/K/mol.

In the case of `COCC[N+]1(C)CCCC1.O=S(=O)([N-]S(=O)(=O)C(F)(F)F)C(F)(F)F`, the “molar heat capacity at constant pressure” value ([1]; 283.15 K, Liquid) is reported as 575.3 ± 14 J/K/mol, the “molar heat capacity at constant pressure” value ([1]; 288.15 K, Liquid) is reported as 578.9 ± 14 J/K/mol and the “molar heat capacity at constant pressure” value ([1]; 293.15 K, Liquid) is reported as 580.3 ± 14 J/K/mol. For the same compound, the “molar heat capacity at constant pressure” value ([1]; 298.15 K, Liquid) was 582.3 ± 14 J/K/mol, the “molar heat capacity at constant pressure” value ([1]; 303.15 K, Liquid) was 584.7 ± 14 J/K/mol and the “molar heat capacity at constant pressure” value ([1]; 308.15 K, Liquid) was 586.5 ± 14 J/K/mol. The “molar heat capacity at constant pressure” value ([1]; 313.15 K, Liquid) was 588.9 ± 14 J/K/mol, the “molar heat capacity at constant pressure” value ([1]; 318.15 K, Liquid) was 591.3 ± 14 J/K/mol and the “molar heat capacity at constant pressure” value ([1]; 323.15 K, Liquid) was 593.2 ± 14 J/K/mol. The “molar heat capacity at constant pressure” value ([1]; 328.15 K, Liquid) was 596.3 ± 15 J/K/mol, the “molar heat capacity at constant pressure” value ([1]; 333.15 K, Liquid) was 597.5 ± 15 J/K/mol and the “molar heat capacity at constant pressure” value ([1]; 338.15 K, Liquid) was 602.6 ± 15 J/K/mol.

For `CCCCO` [butan-1-ol], the “molar heat capacity at constant pressure” value ([1]; 283.15 K, Liquid) was 168 ± 4.1 J/K/mol, the “molar heat capacity at constant pressure” value ([1]; 288.15 K, Liquid) was 171 ± 4.2 J/K/mol and the “molar heat capacity at constant pressure” value ([1]; 293.15 K, Liquid) was 174.1 ± 4.3 J/K/mol. The “molar heat capacity at constant pressure” value ([1]; 298.15 K, Liquid) was 177.9 ± 4.4 J/K/mol, the “molar heat capacity at constant pressure” value ([1]; 303.15 K, Liquid) was 181.1 ± 4.4 J/K/mol and the “molar heat capacity at constant pressure” value ([1]; 308.15 K, Liquid) was 184.5 ± 4.5 J/K/mol. The “molar heat capacity at constant pressure” value ([1]; 313.15 K, Liquid) was 187.8 ± 4.6 J/K/mol, the “molar heat capacity at constant pressure” value ([1]; 318.15 K, Liquid) was 191.4 ± 4.7 J/K/mol and the “molar heat capacity at constant pressure” value ([1]; 323.15 K, Liquid) was 196 ± 4.8 J/K/mol. For the same compound, the “molar heat capacity at constant pressure” value ([1]; 328.15 K, Liquid) was 200.1 ± 4.9 J/K/mol, the “molar heat capacity at constant pressure” value ([1]; 333.15 K, Liquid) was 204.1 ± 5 J/K/mol and the “molar heat capacity at constant pressure” value ([1]; 338.15 K, Liquid) was 208.4 ± 5.1 J/K/mol.

In the case of `CCCC[N+]1(C)CCCC1.O=S(=O)([O-])C(F)(F)F` [1-butyl-1-methylpyrrolidinium trifluoromethanesulfonate], the “molar heat capacity at constant pressure” value ([1]; 283.15 K, Liquid) is reported as 436.5 ± 11 J/K/mol, the “molar heat capacity at constant pressure” value ([1]; 288.15 K, Liquid) is reported as 438.3 ± 11 J/K/mol and the “molar heat capacity at constant pressure” value ([1]; 293.15 K, Liquid) is reported as 439.9 ± 11 J/K/mol. The “molar heat capacity at constant pressure” value ([1]; 298.15 K, Liquid) was 442.7 ± 11 J/K/mol, the “molar heat capacity at constant pressure” value ([1]; 303.15 K, Liquid) was 445.3 ± 11 J/K/mol and the “molar heat capacity at constant pressure” value ([1]; 308.15 K, Liquid) was 447.8 ± 11 J/K/mol. The “molar heat capacity at constant pressure” value ([1]; 313.15 K, Liquid) was 452.2 ± 11 J/K/mol, the “molar heat capacity at constant pressure” value ([1]; 318.15 K, Liquid) was 455.3 ± 11 J/K/mol and the “molar heat capacity at constant pressure” value ([1]; 323.15 K, Liquid) was 457.2 ± 11 J/K/mol. For the same compound, the “molar heat capacity at constant pressure” value ([1]; 328.15 K, Liquid) was 460 ± 11 J/K/mol, the “molar heat capacity at constant pressure” value ([1]; 333.15 K, Liquid) was 461.9 ± 11 J/K/mol and the “molar heat capacity at constant pressure” value ([1]; 338.15 K, Liquid) was 464.6 ± 11 J/K/mol.

For `CCCCCCOS(=O)(=O)[O-].CC[n+]1ccn(C)c1` [3-ethyl-1-methyl-1H-imidazolium hexyl sulfate], the “molar heat capacity at constant pressure” value ([1]; 283.15 K, Liquid) was 505.2 ± 12 J/K/mol, the “molar heat capacity at constant pressure” value ([1]; 288.15 K, Liquid) was 508.3 ± 12 J/K/mol and the “molar heat capacity at constant pressure” value ([1]; 293.15 K, Liquid) was 509.1 ± 12 J/K/mol. The “molar heat capacity at constant pressure” value ([1]; 298.15 K, Liquid) was 513.9 ± 13 J/K/mol, the “molar heat capacity at constant pressure” value ([1]; 303.15 K, Liquid) was 517.4 ± 13 J/K/mol and the “molar heat capacity at constant pressure” value ([1]; 308.15 K, Liquid) was 520.2 ± 13 J/K/mol. The “molar heat capacity at constant pressure” value ([1]; 313.15 K, Liquid) was 523.1 ± 13 J/K/mol, the “molar heat capacity at constant pressure” value ([1]; 318.15 K, Liquid) was 526 ± 13 J/K/mol and the “molar heat capacity at constant pressure” value ([1]; 323.15 K, Liquid) was 528.4 ± 13 J/K/mol. For the same compound, the “molar heat capacity at constant pressure” value ([1]; 328.15 K, Liquid) was 531.5 ± 13 J/K/mol, the “molar heat capacity at constant pressure” value ([1]; 333.15 K, Liquid) was 534 ± 13 J/K/mol and the “molar heat capacity at constant pressure” value ([1]; 338.15 K, Liquid) was 537.6 ± 13 J/K/mol.

For `CCCC[P+](CCCC)(CCCC)CCCC.FC(F)(F)C(F)(F)[P-](F)(F)(F)(C(F)(F)C(F)(F)F)C(F)(F)C(F)(F)F`, the “molar heat capacity at constant pressure” value ([1]; 283.15 K, Crystal 2) was 971 ± 24 J/K/mol, the “molar heat capacity at constant pressure” value ([1]; 288.15 K, Crystal 2) was 981.2 ± 24 J/K/mol and the “molar heat capacity at constant pressure” value ([1]; 293.15 K, Crystal 2) was 990.3 ± 24 J/K/mol. The “molar heat capacity at constant pressure” value ([1]; 298.15 K, Crystal 2) was 1003.2 ± 25 J/K/mol, the “molar heat capacity at constant pressure” value ([1]; 303.15 K, Crystal 2) was 1018.4 ± 25 J/K/mol and the “molar heat capacity at constant pressure” value ([1]; 323.15 K, Crystal 1) was 1029.4 ± 25 J/K/mol. The “molar heat capacity at constant pressure” value ([1]; 328.15 K, Crystal 1) was 1049.8 ± 26 J/K/mol, the “Molar enthalpy of transition or fusion” value ([2]; Crystal 1) was 1.86 ± 0.0717 kcal/mol and the “Molar enthalpy of transition or fusion” value ([2]; Crystal 2) was 2.13 kcal/mol and 2.08 kcal/mol. For the same compound, the Triple point temperature ([3]; Crystal 1) was 342.15 ± 1 K and the Triple point temperature ([3]; Crystal 2) was 313.75 ± 0.8 K and 313.15 ± 1 K.

From the NIST ThermoML archive (doi:10.1016/j.jct.2018.03.031)
